Test results reported in patent US7407988B2, “Carbamic acid compounds comprising a sulfonamide linkage as HDAC inhibitors” (Topotarget UK Limited, priority 2000, dated 2008).
Where a name gives a salt, the structure may show the parent alone. Read-outs that look alike come from different tables or passages of the source.

Assays:
[1] = test system: HeLa cells; experiment: Secondary assay: cell proliferation WST-1, HeLa; format: cell-based; details: Homo sapiens, read-out: Cell Proliferation Inhibition WST-1 (IC50 unless otherwise specified) HeLa
[2] = test system: HDAC (HeLa cell extract); experiment: Primary assay: deacetylase activity, HeLa cell extract as source of HDAC; format: biochemical, human; details: for HDAC Inhibition HeLa, % @ 500: Table 1, @ 500
Description: Briefly, this assay relies on the release of radioactive acetate from a radioactively labelled histone fragment by the action of HDAC enzyme. Test compounds, which inhibit HDAC, reduce the yield of radioactive acetate. Signal (e.g., scintillation counts) measured in the presence and absence of a test compound provide an indication of that compound's ability to inhibit HDAC activity. Decreased activity indicates increased inhibition by the test compound.
The histone fragment was an N-terminal sequence from histone H4, and it was labelled with radioactively labelled acetyl groups using tritiated acetylcoenzyme A (coA) in conjunction with an enzyme which is the histone acetyltransferase domain of the transcriptional coactivator p300. […] The acetylated peptide was then separated from free acetyl coA by size exclusion chromatography on Sephadex G-15 (Sigma G-15-120), using distilled H2O as the mobile phase.
After purification of the radiolabelled histone fragment, it was incubated with a source of HDAC (e.g., an extract of HeLa cells (a rich source of HDAC), recombinantly produced HDAC1 or HDAC2) and any released acetate was extracted into an organic phase and quantitatively determined using scintillation counting. By including a test compound with the source of HDAC, that compound's ability to inhibit the HDAC was determined.
Two cell volumes of extraction buffer were used, and particulate material was centrifuged out (20800 g, 4° C., 10 min). The supernatant extract having deacetylase activity was aliquotted and frozen for storage.
A source of HDAC (e.g., 2 μL of crude HeLa extract, 5 μL of HDAC1 or HDAC2; in elution buffer, as above) was incubated with 3 μL of radioactively labelled peptide along with appropriate dilutions of candidate compounds (1.5 μL) in a total volume of 150 μL of buffer (20 mM Tris pH 7.4, 10% glycerol). The reaction was carried out at 37° C. for one hour, after which the reaction was stopped by adding 20 μL of 1 M HCl/0.4 M sodium acetate. […] Radioactivity was measured using a Tri-Carb 21 00TR Liquid Scintillation Analyzer (Packard).
Percent activity (% activity) for each test compound was calculated as: % activity={(S^C−B)/(S°−B)}×100 wherein S^C denotes signal measured in the presence of enzyme and the compound being tested, S° denotes signal measured in the presence of enzyme but in the absence of the compound being tested, and B denotes the background signal measured in the absence of both enzyme and compound being tested.

[3] = test system: JURKAT human T-cell line; experiment: Secondary assay: cell proliferation WST-1, Jurkat; format: cell-based; details: Homo sapiens, Table 2, 48 h, read-out: Cell Proliferation Inhibition WST-1 (IC50 unless otherwise specified) Jurkat
[4] = test system: K11 HPV E7 transformed human keratinocyte line; experiment: Secondary assay: cell proliferation WST-1, K11; format: cell-based; details: Homo sapiens, Keratinocyte; for IC50: Table 2, 48 h, read-out: Cell Proliferation Inhibition WST-1 (IC50 unless otherwise specified) K11
[5] = Table 1, read-out: HDAC Inhibition (IC50 unless otherwise specified) HeLa
[6] = comparative tables, HDAC inhibition, read-out: HeLa IC50

| Structure (SMILES) | melting point [°C] | IC50 ([1]; Table 2, 48 h) [nM] | IC50 [2, 5] [nM] | IC50 [3] [nM] | IC50 [4] [nM] | HDAC Inhibition HeLa, % @ 500 [2] [% @ 500] | other results |
| --- | --- | --- | --- | --- | --- | --- | --- |
| O=C(CCCCCNS(=O)(=O)c1cccnc1)NO (as salt: oxalate) [PX117432, 6-(Pyridine-3-sulfonylamino)hexanoic acid hydroxyamide oxalate] | 132 to 134 | – | – | – | – | – | – |
| O=C(/C=C/c1ccc(NS(=O)(=O)c2ccccc2)cc1)NO [PX106499, 3-(4-Benzenesulfonylaminophenyl)-N-hydroxyacrylamide] | – | 3800 | 35 | – | – | – | IC50 [2, 6]: 35 nM |
| O=C(/C=C/c1cccc(S(=O)(=O)Nc2ccc(Br)cc2)c1)NO [PX106509] | 204 | 2000 | 6 | 330 | 2000 | – | – |
| O=C(/C=C/c1cccc(S(=O)(=O)Nc2ccc(Cl)cc2)c1)NO [PX106510] | 198 | 2300 | 12 | 250 | 4200 | – | – |
| O=C(/C=C/c1cccc(S(=O)(=O)NCc2ccccc2)c1)NO [PX106511] | 179 | 380 | 35 | 235 | 2500 | – | IC50 [2, 6]: 35 nM |
| O=C(CCCCCNS(=O)(=O)c1ccccc1)NO [PX106522, 6-Benzenesulfonylaminohexanoic acid hydroxyamide] | 80 to 82 | 16700 | 1580 | – | – | – | IC50 [2, 6]: 1600 nM |
| O=C(/C=C/C#Cc1cccc(S(=O)(=O)Nc2ccccc2)c1)NO [PX116238, (E)-5-(3-Phenylsulfamoylphenyl)pent-2-en-4-ynoic acid hydroxyamide] | 88 to 90 | 800 | 14 | – | – | – | IC50 [2, 6]: 14 nM |
| O=C(/C=C/c1ccccc1S(=O)(=O)Nc1ccccc1)NO [PX116242, N-Hydroxy-3-(2-phenylsulfamoylphenyl)acrylamide] | 205 to 206.5 | – | – | – | – | 9 | HeLa, % @ 500 nM ([2]; comparative tables): 9% @ 500 nM |
| O=C(/C=C/c1cccc(S(=O)(=O)NCc2cccc3ccccc23)c1)NO [PX117225, N-Hydroxy-3-{3-[(naphthalen-1-ylmethyl)sulfamoyl]-phenyl}-acrylamide] | 177 | – | 640 | 3300 | – | – | IC50 ([1]; 48 h): 11900 nM; IC50 [2, 6]: 640 nM; inhibition at 20 µM ([4]; Table 2, @ 20 μM, 48 h): 26% |
| O=C(/C=C/c1cccc(S(=O)(=O)NCc2ccc3c(c2)OCO3)c1)NO [PX117226, 3-{3-[(Benzo[1,3]dioxol-5-ylmethyl)-sulfamoyl]-phenyl}-N-hydroxy-acrylamide] | 163 | 500 | 26.3 | 100 | 2800 | – | – |
| COc1ccccc1NS(=O)(=O)c1cccc(/C=C/C(=O)NO)c1 [PX117227, N-Hydroxy-3-[3-(2-methoxy-phenylsulfamoyl)-phenyl]-acrylamide] | 181 | 1200 | 50 | 360 | 4700 | – | – |
| O=C(CCCCS(=O)(=O)Nc1ccccc1)NO [PX117233, 5-(Anilinosulfonyl)-N-hydroxypentanamide] | 128 to 129 | – | – | – | – | 21 | – |
| O=C(CCCCCS(=O)(=O)Nc1ccccc1)NO [PX117234, 6-(Anilinosulfonyl)-N-hydroxyhexanamide] | 97 to 98 | – | – | – | – | 59 | HeLa, % @ 500 nM ([2]; comparative tables): 59% @ 500 nM |
| O=C(CCCCS(=O)(=O)Nc1ccc2ccccc2c1)NO [PX117235, N-Hydroxy-5-[(2-naphthylamino)sulfonyl]pentanamide] | 163 to 164 | – | – | – | – | 40 | – |
| O=C(CCCCCCS(=O)(=O)Nc1ccccc1)NO [PX117236] | 94 to 95 | – | – | – | – | 54 | – |
| O=C(/C=C/c1cccc(S(=O)(=O)NCc2cccnc2)c1)NO [PX117250, N-Hydroxy-3-{3-[(pyridin-3-ylmethyl)-sulfamoyl]-phenyl}-acrylamide] | 191 | 7800 | 192 | 1000 | – | – | – |

| Structure (SMILES) | melting point [°C] | IC50 ([1]; Table 2, 48 h) [nM] | IC50 [2, 5] [nM] | IC50 [3] [nM] | IC50 [4] [nM] | HDAC Inhibition HeLa, % @ 500 [2] [% @ 500] | other results |
| --- | --- | --- | --- | --- | --- | --- | --- |
| CN(c1ccccc1)S(=O)(=O)CCCCCCC(=O)NO [PX117260, N-Hydroxy-7-[(methylanilino)sulfonyl]heptanamide] | 69 to 70 | – | – | – | – | 35 | – |
| CN(c1ccccc1)S(=O)(=O)CCCCCC(=O)NO [PX117410, N-Hydroxy-6-[(methylanilino)sulfonyl]hexanamide] | 121 to 122 | – | – | – | – | 40 | – |
| CN(c1ccccc1)S(=O)(=O)CCCCCCCC(=O)NO [PX117411, N-Hydroxy-8-[(methylanilino)sulfonyl]octanamide] | 65.5 to 66.5 | – | – | – | – | 39 | – |
| O=C(CCCCCCCS(=O)(=O)N(Cc1ccccc1)c1ccccc1)NO [PX117412, 8-[(Benzylanilino)sulfonyl]-N-hydroxyoctanamide] | 119 to 119.5 | – | – | – | – | 54 | – |
| O=C(CCCCCS(=O)(=O)N(Cc1ccccc1)c1ccccc1)NO [PX117414, 6-[(Benzylanilino)sulfonyl]-N-hydroxyhexanamide] | 129 to 129.5 | – | – | – | – | 46 | – |
| O=C(CCCCCNS(=O)(=O)/C=C/c1ccccc1)NO [PX117429, 6-(2-Phenylethenesulfonylamino)hexanoic acid hydroxyamide] | 107 to 109 | – | – | – | – | 73 | – |
| O=C(CCCCCNS(=O)(=O)c1cccnc1)NO [PX117432, 6-(Pyridine-3-sulfonylamino)hexanoic acid hydroxyamide oxalate] | – | – | – | – | – | 24 | – |
| O=C(/C=C/c1ccccc1S(=O)(=O)Nc1cccc2ccccc12)NO [PX117447, N-Hydroxy-3-[2-(naphthalen-1-ylsulfamoyl)-phenyl]-acrylamide] | 186 to 187 | – | – | – | – | 3 | IC50 ([1]; 48 h): 77800 nM; HeLa, % @ 500 nM ([2]; comparative tables): 3% @ 500 nM |
| CN(c1ccccc1)S(=O)(=O)c1ccccc1/C=C/C(=O)NO [PX117448, N-Hydroxy-3-[2-(methyl-phenyl-sulfamoyl)-phenyl]-acrylamide] | 144.5 to 145.5 | – | – | – | – | 3 | IC50 ([1]; 48 h): 88900 nM; HeLa, % @ 500 nM ([2]; comparative tables): 3% @ 500 nM |
| O=C(/C=C/c1ccc(S(=O)(=O)Nc2ccccc2)cc1)NO [PX117450, N-Hydroxy-3-(4-phenylsulfamoylphenyl)acrylamide] | 176 to 177.5 | 1600 | 20 | – | – | – | IC50 [2, 6]: 20 nM |
| O=C(/C=C/c1cccc(S(=O)(=O)Nc2ccccc2-c2ccccc2)c1)NO [PX117713, 3-[3-(Biphenyl-2-ylsulfamoyl)phenyl]-N-hydroxy-acrylamide] | – | 5100 | 138 | 620 | 9200 | – | – |
| O=C(/C=C/c1cccc(S(=O)(=O)NC2Cc3ccccc3C2)c1)NO [PX117735, N-Hydroxy-3-[3-(indan-2-ylsulfamoyl)-phenyl]-acrylamide] | 164 | – | 6 | 74 | 3100 | – | – |
| O=C(/C=C/c1ccc(S(=O)(=O)Nc2ccc3ccccc3c2)cc1)NO [PX117736, N-Hydroxy-3-[4-(naphthalen-2-ylsulfamoyl)-phenyl]-acrylamide] | 198.5 to 199.5 | – | 6 | 120 | 800 | – | – |
| COc1cc(CNS(=O)(=O)c2cccc(/C=C/C(=O)NO)c2)cc(OC)c1OC [PX117778, N-Hydroxy-3-[3-(3,4,5-trimethoxy-benzylsulfamoyl)-phenyl]-acrylamide] | – | – | > 400 | > 10000 | > 30000 | – | – |
| COc1ccc(CCNS(=O)(=O)c2cccc(/C=C/C(=O)NO)c2)cc1OC [PX117779, 3-{3-[2-(3,4-Dimethoxy-phenyl)-ethylsulfamoyl]-phenyl}-N-hydroxy-acrylamide] | – | 9600 | 250 | 1100 | 1400 | – | – |
